“And” between values parts separate entries of the source, which are not always exact repeats. Identical values can stand only once.
What was measured:
[1] = tested on: prostate-specific antigen (PSA); assay: Inhibition of testosterone-induced prostate-specific antigen (PSA) expression in LNCaP cells, real-time RT-PCR; assay type: cell-based; conditions: testosterone 100 nM, 24 hours, no extract
Experimental: Reverse transcription-real-time polymerase chain reaction (real-time RT-PCR) was used to measure the inhibition of expression of prostate-specific antigen (PSA) in testosterone-induced prostate cancer cell lines (LNCaP cells). Specifically, the prostate cancer cell line (LNCaP cells) was dispensed to a 6 well plate at 5×10^5 cells/well. After incubating for 24 hours in an incubator under conditions of 37° C. and 5% CO2, Ficus auriculata Lour. fruit extract of each country of origin (Vietnam, Nepal, Myanmar, Bangladesh, China, Laos) was added at 100 μg/ml and incubated for 3 hours. Testosterone 100 nM was added to each well except for the control and incubated for 24 hours. After incubation for 24 hours, the supernatant was removed, total RNA was extracted using Trizol, and cDNA was synthesized using PrimeScript RT Master Mix (Takara, Japan). The synthesized cDNA was subjected to real-time polymerase chain reaction using TOPreal qPCR 2×PreMIX (Enzynomics, Korea).
Reverse transcription-real-time polymerase chain reaction (real-time RT-PCR) was used to measure the inhibition of expression of prostate-specific antigen (PSA) in testosterone-induced prostate cancer cell lines (LNCaP cells). Specifically, the prostate cancer cell line (LNCaP cells) was dispensed to a 6 well plate at 5×10^5 cells/well. […]

[2] = tested on: androgen receptor (AR); assay: Androgen receptor (AR) expression in LNCaP cells, real-time RT-PCR; assay type: cell-based; conditions: no extract

C[C@]12CC[C@H]3[C@@H](CCC4=CC(=O)CC[C@@]43C)[C@@H]1CC[C@@H]2O [testosterone]
PSA expression increased by testosterone [1]: 190% and 180%
expression of AR increased by testosterone [2]: 140%

From US20220000957A1, “COMPOSITION FOR ALLEVIATING SYMPTOMS OF ANDROPAUSE, CONTAINING EXTRACT OF FICUS AURICULATA LOUR. AS ACTIVE INGREDIENT” (KOREA RESEARCH INSTITUTE OF BIOSCiENCE AND BIOTECHNOLOGY, priority 2018, published 2022)
